Measured values published in patent US8609654B1, “Compounds for enzyme inhibition” (Onyx Therapeutics, Inc., priority 2006, dated 2013).

Experiments:
[1] = test system: rheumatoid arthritis induced by immunization with bovine type II collagen in CFA; assay: Mouse model of RA by immunization with bovine type II collagen; assay type: in vivo, female DBA/1 mice
Description: The effect administration of Compound 14 on disease progress was also assessed in an alternative mouse model for RA, in which disease develops 21-30 days after immunization with bovine type II collagen (Kagari et al., J Immunol 169:1459-1466, 2002). […] Again, disease progression was measured using a total clinical score of paw condition per mouse.

[2] = test system: rheumatoid arthritis induced by anti-type II collagen antibodies and LPS; assay: Arthrogenic antibody mouse model of rheumatoid arthritis (anti-collagen antibodies and LPS); assay type: in vivo, female Balb/c mice
Description: The effect of Compound 14 on disease progression was assessed in 2 mouse models of rheumatoid arthritis (FIG. 2). […] Rhematoid arthritis was induced on Day 0 in female Balb/c mice by IV administration of anti-type II collagen antibodies followed 3 days later by LPS. […] Per mouse, each paw was measured for disease using a scale of 0-4 and a total clinical score was assigned for each animal (max score=16). Administration of 6 mg/kg of Compound 14 reduced disease severity by ˜50% while the 20 mg/kg dose level inhibited the disease by greater than 75%.

[3] = test system: chymotryptic-like activity of isolated 20S constitutive proteasome vs immunoproteasome; assay: Enzyme kinetic assay with isolated 20S proteasome preps, EC50 ratio of CT-L activity (20S ratio); assay type: biochemical; details: constitutive proteasome to immunoproteasome, >1 = prefers immunoproteasome
Text: Enzyme kinetic assays such as those disclosed in U.S. application Ser. No. 09/569,748, Example 2 and Stein et al., Biochem. (1996), 35, 3899-3908 use isolated 20S proteasome preps with greater than 90% constitutive proteasome subunits or immunoproteasome subunits. The inhibitory preference of the molecule is then based on the EC50 ratio of the chymotryptic-like activity of the constitutive proteasome to that of the immunoproteasome (20S ratio).

[4] = target: T1, 20S proteasome subunit β5 vs immunoproteasome subunit LMP7 in RPMI-8226 cells (Homo sapiens, UniProt P28062+P28074); assay: ELISA-based active site assay in RPMI-8226 cells (ELISA ratio); assay type: cell-based; details: EC50 ratio with β5 antibody to LMP7 antibody, RPMI-8226 cells; >1 = prefers immunoproteasome
T1 construct: Cells expressing approximately equivalent amounts of immuno- and constitutive proteasome (e.g., RPMI-8226) are treated with test compound; endogenous in cells; host or cells: RPMI-8226 multiple myeloma cells
T1 sequence (P28074 60-263): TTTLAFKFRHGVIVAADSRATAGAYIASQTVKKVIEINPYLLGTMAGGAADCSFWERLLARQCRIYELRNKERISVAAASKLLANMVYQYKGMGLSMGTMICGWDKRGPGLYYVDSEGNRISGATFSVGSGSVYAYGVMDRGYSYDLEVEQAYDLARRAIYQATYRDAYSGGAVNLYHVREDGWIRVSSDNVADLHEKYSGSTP
T1 sequence (P28062 73-276): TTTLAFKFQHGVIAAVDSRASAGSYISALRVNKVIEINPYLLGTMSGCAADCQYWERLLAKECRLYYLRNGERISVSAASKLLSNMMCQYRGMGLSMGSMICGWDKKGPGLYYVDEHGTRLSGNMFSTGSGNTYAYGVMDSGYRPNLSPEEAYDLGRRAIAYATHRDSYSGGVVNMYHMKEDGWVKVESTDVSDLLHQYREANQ
Description: Lastly, a more cell-based approach can be utilized. Cells expressing approximately equivalent amounts of immuno- and constitutive proteasome (e.g., RPMI-8226) are treated with test compound, followed by the method for determining the activity of a proteasome inhibitor as described in application Ser. No. 11/254,541. The ratio of the EC50 generated in the ELISA-based assay using β5 antibody and LMP7 antibodies (ELISA ratio) provides the basis for determining the inhibitory preference of the test compound. […] In all three assays, a ratio of less than one denotes the molecule inhibits the CT-L activity of the constitutive proteasome better than that of the immunoproteasome. Ratios greater than one signifies the molecule inhibits chymotrypsin-like activity of the immunoproteasome better than that of the constitutive proteasome.
A suitable ELISA assay may be found in U.S. patent application Ser. No. 11/254,541, incorporated herein in its entirety. Briefly, RPMI-8226 cells were treated with 0.1 nM to 1 μM of proteasome Inhibitor B. The samples were then washed with phosphate-buffered saline (PBS) and lysed in hypotonic buffer (20 mM Tris pH 8, 5 mM EDTA) (Tris-HCl and EDTA are available from Teknova, Inc., Hollister, Calif.). Cellular debris was removed by centrifugation at 14,000 rpm in a microfuge (4° C.) for 2 min. The supernatant was transferred to a fresh tube, snap frozen in liquid nitrogen and stored at −80° C. After thawing on ice, the samples (30 μl for assays run in triplicate) were treated with 500 nM of Inhibitor A for 1 hr at room temperature. Following treatment with Inhibitor A, the lysate was denatured by addition of seven volumes of 1% SDS (210 μl) (available from Bio-Rad, Hercules, Calif.) and heating at 99° C. with vigorous shaking for 5 min. The sample was allowed to cool and two volumes (60 μl) of 10% Triton X-100 (available from Bio-Rad, Hercules, Calif.) was added.
Streptavidin sepharose beads (6.5 μl/well) (available from Amersham Biosciences, Piscataway, N.J.), were washed three times with 1 ml PBS (available from Mediatech, Inc., Herndon, Va.) in a microcentrifuge tube. The beads were resuspended in ELISA wash/block buffer (PBS+0.1% Tween 20+1% bovine serum albumin; 20 μl/well) and transferred to the wells of a 96 well filter plate (BSA is available from Sigma, St. Louis, Mo.; Tween is available from Calbiochem, San Diego, Calif.). Denatured whole blood or PBMC lysates that were treated with Inhibitor 3 were added to the filter plate wells containing the streptavidin sepharose beads (each sample assayed in triplicate) and incubated for 1 hr at room temperature with shaking (MultiScreen-DV Opaque Plates with low protein binding durapore membrane; available from Millipore, Billerica, Mass.). The unbound material was removed by gentle filtration and the beads were washed six times with ELISA wash/block buffer (200 μl each).
Primary antibody to human 20S proteasome subunit (35 (rabbit polyclonal antibody; available from Biomol, Plymouth Meeting, Pa.) or human 20S immunoproteasome subunit LMP7 (rabbit polyclonal antibody; available from Affinity BioReagents, Golden, Colo.) was diluted 1:1000 in ELISA wash/block buffer, added to the beads (100 μl/well), and incubated for 1 hr at room temperature on an orbital shaker. The beads were washed six times with ELISA wash/block buffer with gentle filtration. Secondary antibody treatment (1:5000) and washing are as described for primary antibody (goat anti-rabbit antibody-HRP conjugate; available from Biosource, Camarillo, Calif.). The beads were then resuspended in 100 μl chemiluminescent detection reagent (Super Signal Pico Chemiluminescent Substrate™; available from Pierce, Rockford, Ill.) and luminescence was read on a Tecan plate reader. […]

[5] = target: T2, 26S proteasome CT-L activity in lysate of HT29 (constitutive) vs Sultan/Thp1 (immunoproteasome) cells (Homo sapiens, UniProt P28062+P28074); assay: CT-L EC50 with 26S proteasome in cell lysate (Lysate ratio); assay type: biochemical; details: HT29 lysate to Sultan/Thp1 lysate, >1 = prefers immunoproteasome
T2 construct: using 26S proteasome in the context of a cell lysate; endogenous in cells; host or cells: HT29 lysate (constitutive); Sultan or THP1 lysate (immunoproteasome)
T2 sequence (P28074 60-263): T1 sequence (P28074 60-263)
T2 sequence (P28062 73-276): T1 sequence (P28062 73-276)
Description: Alternatively, the CT-L EC50 of a compound can be determined using 26S proteasome in the context of a cell lysate. Compound is added to lysate generated from cells that either predominantly express constitutive proteasome (e.g., HT29) or immunoproteasome (e.g., THP1). Again, the inhibitory preference is then based on the EC50 ratio (Lysate ratio).

20 S ratio (const:immuno) [3] | Elisa ratio (beta5:LMP7) [4] | Lysate ratio (HT29:Sultan/Thp1) [5] | Structure (SMILES) | effect on disease progression ([1]; 6 or 20 mg/kg beginning after first signs of disease, total clinical score) | dose dependence of reduction of disease severity ([1]; 6 vs 20 mg/kg) | reduction of disease severity ([2]; 6 mg/kg IV 3 times/week for 2 weeks from Day 4) [%] | inhibition of the disease ([2]; 20 mg/kg IV 3 times/week for 2 weeks from Day 4) | effect on disease progression ([2]; IV 3 times/week for 2 weeks from Day 4, total clinical score (max 16))
– | – | – | COc1ccc(C[C@H](NC(=O)[C@H](C)NC(=O)CN2CCOCC2)C(=O)N[C@@H](Cc2ccccc2)C(=O)[C@@]2(C)CO2)cc1 [Compound 14] | inhibited disease progression as compared to vehicle control | enhanced reduction of disease severity | ~50 | greater than 75% | inhibited disease progression in a dose dependent manner
<0.5 | <0.5 | <0.5 | CC(C)CC(NC(=O)OCc1ccccc1)C(=O)N[C@@H](CC(C)C)C(=O)N[C@@H](CC(C)C)C(=O)C1(C)CO1 (some centres unmarked) | – | – | – | – | –
>1.0 | >5.0 | >2.0 | C[C@H](NC(=O)OCc1ccccc1)C(=O)N[C@@H](Cc1c[nH]c2ccccc12)C(=O)N[C@@H](Cc1ccccc1)C(=O)C1(C)CO1 (some centres unmarked) | – | – | – | – | –
>5.0 | >3.0 | >2.0 | CC1(C(=O)[C@H](Cc2ccccc2)NC(=O)[C@H](Cc2ccccc2)NC(=O)[C@@H](Cc2ccccc2)NC(=O)OCc2ccccc2)CO1 (some centres unmarked) | – | – | – | – | –
<0.5 | <0.5 | <0.5 | CC(C)C[C@H](NC(=O)OCc1ccccc1)C(=O)N[C@H](CC(C)C)C(=O)N[C@@H](Cc1ccccc1)C(=O)C1(C)CO1 (some centres unmarked) | – | – | – | – | –
>3.0 | >2.0 | >3.0 | CC1(C(=O)[C@H](Cc2ccccc2)NC(=O)[C@H](Cc2c[nH]c3ccccc23)NC(=O)C(CC(=O)O)NC(=O)OCc2ccccc2)CO1 (some centres unmarked) | – | – | – | – | –
